# Patent US6121285A, “Substituted aminocycloalkylpyrrolidine derivatives and cis-substituted aminocycloalkylpyrrolidine derivatives” (Daiichi Pharmaceutical Co., Ltd., priority 1995, dated 2000)
# Like-named read-outs stand apart in the source and are kept apart here.
# Key:
# [1] = tested on: Slc:ddy five week male mice; experiment: Acute toxicity, intravenous administration to mice; assay type: in vivo; details: for acute toxicity result in words: same test as cis/trans (cis: 0/5 deaths); for Number of death: hydrochloride in distilled water
# Method: A solution of 5-amino-7-[4-(R)-(1-aminocyclopropyl)-3-(S)-fluoro-1-pyrrolidinyl]-6-fluoro-1-[2-(S)-fluoro-1-(R)-cyclopropyl]-1,4-dihydro-8-methyl-4-oxoquinoline-3-carboxylic acid (abbreviated as cis) hydrochloride of Example 15 or 5-amino-7-[4-(R)-(1-aminocyclopropyl)-3-(R)-fluoro-1-pyrrolidinyl]-6-fluoro-1-[2-(S)-fluoro-1-(R)-cyclopropyl]-1,4-dihydro-8-methyl-4-oxoquinoline-3-carboxylic acid (abbreviated as trans) hydrochloride in distilled water for injection was administered intravenously to Slc:ddy five week male mice (five mice per group) and the symptoms are observed.
# [2] = tested on: Str. faecalis, ATCC-19433; experiment: Antimicrobial activity (MIC), standard method of the Japan Society of Chemotherapy; assay type: cell-based
# Method: (§1) Examples of the first and second aspects of the present invention are given below by way of illustration and not by way of limitation. In-this regard, the antibacterial and antimicrobial activities of the compounds of interest were measured in accordance with the standard method specified by the Japan Society of Chemotherapy. The results are shown in Tables 1 to 5 as a minimum inhibitory concentration (MIC,μg/ml). Unless otherwise indicated, all percents (%) are by weight.
# Ser. marcescens, 10100 = experiment: as above; assay type: cell-based
# Method: as §1
# S. aureus, 870307 = experiment: as above; assay type: cell-based
# Method: as §1
# S. aureus, 209P = experiment: as above; assay type: cell-based
# Method: as §1
# E. coli, NIHJ = experiment: as above; assay type: cell-based
# Method: as §1
# Pr. vulgaris, 08601 = experiment: as above; assay type: cell-based; details: for MIC: Proteus vulgaris, read-out: minimum inhibitory concentration (MIC)
# Method: as §1
# Str. pyogenes, G-36 = experiment: as above; assay type: cell-based
# Method: as §1
# [3] = tested on: Ps. maltophilia, IID-1275; experiment: as above; assay type: cell-based
# Method: as §1
# S. flexneli, 2A 5503 = experiment: as above; assay type: cell-based; details: for minimum inhibitory concentration (MIC): S. flexneli, 2A 5503
# Method: as §1
# Ps. aeruginosa, 32104 = experiment: as above; assay type: cell-based; details: for minimum inhibitory concentration (MIC): Ps. aeruginosa
# Method: as §1
# Pr. mirabilis, IFO-3849 = experiment: as above; assay type: cell-based
# Method: as §1
# S. epidermidis, 56500 = experiment: as above; assay type: cell-based
# Method: as §1
# Ps. aeruginosa, 32121 = experiment: as above; assay type: cell-based
# Method: as §1
# [4] = Staphylococcus aureus, read-out: minimum inhibitory concentration (MIC)
# [5] = Staphylococcus epidermidis, S. epidermidis, 56500, read-out: minimum inhibitory concentration (MIC)
# [6] = 150 mg/kg, * = test stopped when second mouse died
structure (smiles),measurement,setting,value
"Cc1c(N2C[C@@H](CO)[C@@H](C3(N)CC3)C2)c(F)c(N)c2c(=O)c(C(=O)O)cn(C3CC3)c12 (relative stereo) [Example 14, 5-Amino-7-[cis-4-(1-aminocyclopropyl)-3-hydroxymethyl-1-pyrrolidinyl]-1-cyclopropyl-6-fluoro-1,4-dihydro-8-methyl-4-oxoquinoline-3-carboxylic acid]",acute toxicity result in words,[1]; 150 mg/kg,same result
"Cc1c(N2C[C@@H](F)[C@@H](C3(N)CCC3)C2)c(F)c(N)c2c(=O)c(C(=O)O)cn([C@@H]3C[C@@H]3F)c12 (single isomer, unassigned; isomer b) [Example 13]",minimum inhibitory concentration (MIC),[2],0.025 µg/mL
same,minimum inhibitory concentration (MIC),"Ser. marcescens, 10100",0.20 µg/mL
same,minimum inhibitory concentration (MIC),"S. aureus, 870307",0.05 µg/mL
same,minimum inhibitory concentration (MIC),"S. aureus, 209P",≤ 3 ng/mL
same,minimum inhibitory concentration (MIC),"E. coli, NIHJ",≤ 3 ng/mL
same,minimum inhibitory concentration (MIC),"Pr. vulgaris, 08601",0.025 µg/mL
same,minimum inhibitory concentration (MIC),"Str. pyogenes, G-36",6 ng/mL
same,minimum inhibitory concentration (MIC),[3],0.20 µg/mL
same,minimum inhibitory concentration (MIC),"S. flexneli, 2A 5503",6 ng/mL
same,minimum inhibitory concentration (MIC),"Ps. aeruginosa, 32104",0.20 µg/mL
same,minimum inhibitory concentration (MIC),"Pr. mirabilis, IFO-3849",0.05 µg/mL
same,minimum inhibitory concentration (MIC),"S. epidermidis, 56500; S. epidermidis, 56500",6 ng/mL
same,minimum inhibitory concentration (MIC),"Ps. aeruginosa, 32121",0.10 µg/mL
same,acute toxicity result in words,[1]; 150 mg/kg,same result
"Cc1c(N2C[C@H](C)[C@@H](C3(N)CC3)C2)c(F)c(N)c2c(=O)c(C(=O)O)cn([C@@H]3C[C@@H]3F)c12 [Example 3, 5-Amino-7-[(3R,4R)-3-(1-aminocyclopropyl)-4-methyl-1-pyrrolidinyl]-6-fluoro-1-[(1R,2S)-2-fluorocyclopropyl]-1,4-dihydro-8-methyl-4-oxoquinoline-3-carboxylic acid]",MIC,"[2]; Enterococcus faecalis, ATCC19433, read-out: minimum inhibitory concentration (MIC)",0.025 µg/mL
same,MIC,"Ser. marcescens, 10100; Serratia marcescens, read-out: minimum inhibitory concentration (MIC)",0.1 µg/mL
same,MIC,"S. aureus, 870307; [4]",0.025 µg/mL
same,MIC,"S. aureus, 209P; [4]",≤ 3 ng/mL
same,MIC,"E. coli, NIHJ; Escherichia coli, read-out: minimum inhibitory concentration (MIC)",≤ 3 ng/mL
same,MIC,"Pr. vulgaris, 08601",0.025 µg/mL
same,MIC,"Str. pyogenes, G-36; Streptococcus pyogenes, G36, read-out: minimum inhibitory concentration (MIC)",≤ 3 ng/mL
same,MIC,"[3]; Stenotrophomonas maltophilia, IID1275, read-out: minimum inhibitory concentration (MIC)",0.1 µg/mL
same,MIC,"S. flexneli, 2A 5503; read-out: minimum inhibitory concentration (MIC), S. flexneli, 2A 5503",≤ 3 ng/mL
same,MIC,"Ps. aeruginosa, 32104; Pseudomonas aeruginosa, 32104, Ps. aeruginosa, read-out: minimum inhibitory concentration (MIC)",0.2 µg/mL
same,MIC,"Pr. mirabilis, IFO-3849; Proteus mirabilis, IFO3849, read-out: minimum inhibitory concentration (MIC)",0.05 µg/mL
same,MIC,"S. epidermidis, 56500; [5]",≤ 3 ng/mL
same,MIC,"Ps. aeruginosa, 32121; Pseudomonas aeruginosa, read-out: minimum inhibitory concentration (MIC)",0.1 µg/mL
"Cc1c(N2C[C@H](F)[C@@H](C3(N)CC3)C2)c(F)c(N)c2c(=O)c(C(=O)O)cn([C@@H]3C[C@@H]3F)c12.Cl [Example 5, 5-Amino-7-[4-(R)-(1-aminocyclopropyl)-3-(R)-fluoro-1-pyrrolidinyl]-6-fluoro-1-[2-(S)-fluoro-1-(R)-cyclopropyl]-1,4-dihydro-8-methyl-4-oxoquinoline-3-carboxylic acid hydrochloride]",MIC,"S. epidermidis, 56500; [5]",≤ 3 ng/mL
same,Number of death,[1]; 50 mg/kg,0/5
same,Number of death,"[1]; 100 mg/kg, * = test stopped when second mouse died",2/2
same,Number of death,[1]; [6],2/2
"COc1c(N2C[C@@H](F)[C@@H](C3(N)CC3)C2)c(F)cc2c(=O)c(C(=O)O)cn([C@@H]3C[C@@H]3F)c12 [Example 12, 7-[4-(R)-(1-Aminocyclopropyl)-3-(S)-fluoro-1-pyrrolidinyl]-6-fluoro-1-[2-(S)-fluoro-1-(R)-cyclopropyl]-1,4-dihydro-8-methoxy-4-oxoquinoline-3-carboxylic acid]",MIC,"Pr. vulgaris, 08601",0.006 µg/mL
same,minimum inhibitory concentration (MIC),"S. flexneli, 2A 5503",13 ng/mL
same,minimum inhibitory concentration (MIC),"S. flexneli, 2A 5503; listed as 18",6 ng/mL
same,minimum inhibitory concentration (MIC),"Ps. aeruginosa, 32104; listed as 18",0.20 µg/mL
same,acute toxicity result in words,[1]; 150 mg/kg,same result
"Cc1c(N2C[C@@H](F)[C@@H](C3(N)CC3)C2)c(F)c(N)c2c(=O)c(C(=O)O)cn([C@@H]3C[C@@H]3F)c12.Cl [Example 15, 5-Amino-7-[4-(R)-(1-aminocyclopropyl)-3-(S)-fluoro-1-pyrrolidinyl]-6-fluoro-1-[2-(S)-fluoro-1-(R)-cyclopropyl]-1,4-dihydro-8-methyl-4-oxoquinoline-3-carboxylic acid hydrochloride]",Number of death,[1]; [6],0/5
"COc1c(N2C[C@@H](F)[C@@H](C3(N)CC3)C2)c(F)c(N)c2c(=O)c(C(=O)O)cn([C@@H]3C[C@@H]3F)c12 [Example 16, 5-Amino-7-[4-(R)-(1-aminocyclopropyl)-3-(S)-fluoro-1-pyrrolidinyl]-6-fluoro-1-[2-(S)-fluoro-1-(R)-cyclopropyl]-1,4-dihydro-8-methoxy-4-oxoquinoline-3-carboxylic acid]",acute toxicity result in words,[1]; 150 mg/kg,same result
"C[C@H]1COc2c(N3C[C@@H](F)[C@@H](C4(N)CC4)C3)c(F)cc3c(=O)c(C(=O)O)cn1c23 [Example 17, 10-[4-(R)-(1-Aminocyclopropyl)-3-(S)-fluoro-1-pyrrolidinyl]-9-fluoro-2,3-dihydro-3-(S)-methyl-7-oxo-7H-pyrido[1,2,3-de][1,4]benzoxazine-6-carboxylic acid]",acute toxicity result in words,[1]; 150 mg/kg,same result
"C[C@H]1COc2c(N3C[C@@H](F)[C@@H](C4(N)CC4)C3)c(F)c(N)c3c(=O)c(C(=O)O)cn1c23 [Example 21, 8-Amino-10-[4-(R)-(1-aminocyclopropyl)-3-(S)-fluoro-1-pyrrolidinyl]-9-fluoro-2,3-dihydro-3-(S)-methyl-7-oxo-7H-pyrido[1,2,3-de][1,4]benzoxazine-6-carboxylic acid]",MIC,"S. epidermidis, 56500; Staphylococcus epidermidis, 56500, read-out: minimum inhibitory concentration (MIC)",13 ng/mL
same,acute toxicity result in words,[1]; 150 mg/kg,same result
